According to patent publication US3998963A, “Tertiary butyl substituted carbamoyl oxime pesticides” (priority 1975, dated 1976):
≈ marks a conversion by molar mass, not a printed value.

Key:
Format in all cases: in vivo
[1] = test system: two-spotted mite (Tetranychus urticae Koch); test: Mite Foliage Spray Test; details: foliar, 144 h, 6 days, read-out: Insect LD50, Mite
Protocol: (§1) Suspensions of the test compouns were prepared by dissolving one gram of compound in 50 milliliters of acetone in which had been dissolved 0.1 gram (10 percent of the weight of compound) of an alkylphenoxy polyethoxyethanol surfactant, as an emulsifying or dispersing agent. The resulting solution was mixed into 150 milliliters of water to give roughly 200 milliliters of a suspension containing the compound in finely divided form. The thus-prepared stock suspension contained 0.5 percent by weight of compound. The test concentrations in parts per million by weight employed in the tests described hereinbelow were obtained by appropriate dilutions of the stock suspension with water. The test procedures were as follows:
Adults and nymphal stage of the two-spotted mite (Tetranychus urticae Koch), reared on Tendergreen bean plants at 80±5 per cent relative humidity, were the test organisms. Infested leaves from a stock culture were placed on the primary leaves of two bean plants 6 to 8 inches in height, growing in a 21/2 inch clay pot. 150-200 Mites, a sufficient number for testing, transferred from the excised leaves to the fresh plants in a period of twenty four hours. Following the twenty four hour transfer period, the excised leaves were removed from the infested plants. The test compounds were formulated by diluting the stock suspension with water to give a suspension containing 500 parts of test compound per million parts of final formulation. The potted plants (one pot per compound) were placed on a revolving turntable and sprayed with 100-110 milliliters of test compound formulation by use of a DeVilbiss spray gun set at 40 psig. air pressure. This application, which lasted 25 seconds, was sufficient to wet the plants to run-off. As a control, 100-110 milliliters of a water solution containing acetone and emulsifier in the same concentrations as the test compound formulation, but containing no test compound, were also sprayed on infested plants. The sprayed plants were held at 80±5 per cent relative humidity for 6 days, after which a mortality count of motile forms was made. Microscopic examination for motile forms was made on the leaves of the test plants. Any individual which was capable of locomotion upon prodding was considered living.

[2] = test system: southern armyworm (Spodoptera eridania, (Cram.)); test: Armyworm Immersion Test; details: for LC50: Spodoptera eridania, 72 h, immersion (contact), 3 days, read-out: Imm LD50, Armyworm; for (Imm/Bait), Armyworm: ratio immersion/bait LD50; for contact vs stomach poison, army worm (in words): immersion vs bait
Protocol: as §1
The test organism used was the fourth instar larvae of the southern armyworm (Spodoptera eridania, (Cram.)) reared on Tendergreen beans in a room where temperature was held at 80° ± 5° F. and relaitve humidity 50 ± 5 percent.
Ten randomly selected larvae were thoroughly wetted in a formulated mixture of the chemical (50 ml) by pouring the insects and formulation from one beaker to another six times. Excess liquid was removed by transferring the larvae to paper towels. An equivalent amount of a water solution containing acetone and emulsifier in the same concentrations as the insecticidal mixture but without the candidate insecticide was applied in the same manner as a controls for the experiment. When dry, 5 larvae were placed in each of two 9-cm Petri dishes lined with filter paper and containing one fully expanded Tendergreen bean leaf per dish as food.
The closed dishes were held at 80°-85° F. for 3 days. Although the larvae can easily consume the whole leaf within 24 hours, no more food was added. Check larvae remained vigorous during the entire holding period. At the end of the holding period larvae which were unable to move the length of the body, even upon stimulation, were considered dead.
(§2) In Table 1 are presented insect and rat toxicity data (bait tests) on a comparative basis of the compounds described above. […] Rat toxicity is also more meaningfully compared on the basis of molar weight LD50 values. The relative efficacy of the parent compounds as compared to the previously known derivatives and as compared to the new compounds of this invention is also shown in Table 1. The ratio of efficacy as contact poisons (immersion/bait) of the compounds tested against Armyworm and House Fly is presented in Table 2 along with the results of the phytotoxicity tests of the compounds on bean, corn, tomato and cotton.

[3] = test system: southern armyworm (Spodoptera eridania, (Cram.)); test: Southern Armyworm Leaf Spray Bait Test; details: for LC50: Spodoptera eridania, 72 h, leaf spray bait, 3 days, read-out: Insect LD50, Armyworm; for (b) relative efficacy of derivative vs parent compound, Armyworm: bait, formula of footnote b is drawing 8
Protocol: as §1
Southern Armyworm Leaf Spray Bait Test
Larvae of the southern armyworm (Spodoptera eridania, (Cram.)), reared on Tendergreen bean plants at a temperature of 80°±5° F. and a relative humidity of 50±5 per cent, constituted the test insects.
The test compounds were formulated by diluting the stock suspension with water to give a suspension containing 500 parts of test compound per million parts of final formulation. Potted Tendergreen bean plants of standard height and age were placed on a revolving turntable and sprayed with 100-110 milliliters of test compound formulation by use of a DeVilbiss spray gun set at 10 psig air pressure. This application, which lasted 25 seconds, was sufficient to wet plants to run-off. As a control, 100-110 milliliters of a water-acetone-emulsifier solution containing no test compound were also sprayed on infested plants. When dry, the paired leaves were separated and each one was placed in a 9 centimeter Petri dish lined with moistened filter paper. Five randomly selected larvae were introduced into each dish and the dishes were closed. The closed dishes were labeled and held at 80°-85° F. for 3 days. Although the larvae could easily consume the whole leaf within 24 hours, no more food was added. Larvae which were unable to move the length of the body, even upon stimulation by prodding, were considered dead. Per cent mortality was recorded for various concentration levels.
as §2

[4] = test system: house flies (Musca domestica, L.); test: Fly Bait Test; details: for LC50: Musca domestica, 24 hours, read-out: Insect LD50, Housefly; for (b) relative efficacy of derivative vs parent compound, Housefly: formula of footnote b is drawing 8
Protocol: as §1
Four to six day old adult house flies (Musca domestica, L.), reared according to the specifications of the Chemical Specialities Manufacturing Association (Blue Book, McNair-Dorland Co., N.Y. 1954; pages 243-244, 261) under controlled conditions of 80°±5° F. and 50±5 per cent relative humidity, were the test insects. The flies were immobilized by anesthetizing with carbon dioxide and twenty five immobilized individuals, males and females, were transferred to a cage consisting of a standard food strainer about five inches in diameter which was inverted over a wrapping-paper covered surface. The test compounds were formulated by diluting the stock suspension with a 10 per cent (by weight) sugar solution to give a suspension containing 500 parts of test compound per million parts of final formulation, by weight. Ten milliliters of the test formulation were added to a souffle cup containing a 1-inch square of an absorbent cotton pad. This bait cup was introduced and centered on the blotting paper under the food strainer prior to admitting the anesthetized flies. The caged flies were allowed to feed on the bait for 24 hours, at a temperature of 80°±5° F. and the relative humidity of 50±5 per cent.
as §2

SMILES: CC(=NOC(=O)N(C)Sc1ccc(C)cc1)SC(C)C [Compound 7]
- LC50 [1]: 42 µg/mL (≈ 134 µM)
- LC50 [2]: 14.4 µg/mL (≈ 46.1 µM)
- (Imm/Bait), Armyworm [2]: 1.2
- LC50 [3]: 12 µg/mL (≈ 38.4 µM)
- (b) relative efficacy of derivative vs parent compound, Armyworm [3]: 2.3
- LC50 [4]: 50 µg/mL (≈ 160 µM)
- (b) relative efficacy of derivative vs parent compound, Housefly [4]: 0.38

SMILES: CSC(C)=NOC(=O)N(C)Sc1ccc(Cl)cc1 [Compound 4]
- LC50 [1]: 500 µg/mL (≈ 1640 µM)
- LC50 [2]: 47 µg/mL (≈ 154 µM)
- (Imm/Bait), Armyworm [2]: 0.47
- LC50 [3]: 10 µg/mL (≈ 32.8 µM)
- (b) relative efficacy of derivative vs parent compound, Armyworm [3]: 2.1
- LC50 [4]: 8 µg/mL (≈ 26.2 µM)

SMILES: CSC(C)=NOC(=O)N(C)Sc1ccc(C(C)(C)C)cc1 [Compound 8, O-[N-Methyl-N-[4-(t-butylphenyl)sulfenyl]carbamoyl] S-Methyl Acetothiolhydroximate]
- LC50 [1]: 380 µg/mL (≈ 1160 µM)
- LC50 [2]: 4 µg/mL (≈ 12.3 µM)
- contact vs stomach poison, army worm (in words) [2]: outstanding contact poison
- (Imm/Bait), Armyworm [2]: 1
- LC50 [3]: 4 µg/mL (≈ 12.3 µM)
- (b) relative efficacy of derivative vs parent compound, Armyworm [3]: 5.7
- LC50 [4]: 17 µg/mL (≈ 52.1 µM)
- (b) relative efficacy of derivative vs parent compound, Housefly [4]: 0.4

SMILES: CC(=NOC(=O)N(C)Sc1ccc(Cl)cc1)SC(C)C [Compound 5]
- LC50 [1]: 58 µg/mL (≈ 174 µM)
- LC50 [2]: 4.5 µg/mL (≈ 13.5 µM)
- (Imm/Bait), Armyworm [2]: 0.15
- LC50 [3]: 30 µg/mL (≈ 90.1 µM)
- (b) relative efficacy of derivative vs parent compound, Armyworm [3]: 1.0
- LC50 [4]: 50 µg/mL (≈ 150 µM)
- (b) relative efficacy of derivative vs parent compound, Housefly [4]: 0.4

SMILES: CC(=NOC(=O)N(C)Sc1ccc(C(C)(C)C)cc1)SC(C)C [Compound 9, O-[N-Methyl-N-[4-(t-Butylphenyl)sulfenyl]carbamoyl] S-Isopropyl Thiolacetohydroximate]
- LC50 [1]: 42 µg/mL (≈ 118 µM)
- LC50 [2]: 5 µg/mL (≈ 14.1 µM)
- (Imm/Bait), Armyworm [2]: 0.25
- LC50 [3]: 19 µg/mL (≈ 53.6 µM)
- (b) relative efficacy of derivative vs parent compound, Armyworm [3]: 1.6
- LC50 [4]: 50 µg/mL (≈ 141 µM)
- (b) relative efficacy of derivative vs parent compound, Housefly [4]: 0.43

SMILES: CCSC(C)=NOC(=O)NC [Compound 3]
- LC50 [1]: 250 µg/mL (≈ 1420 µM)
- LC50 [3]: 11 µg/mL (≈ 62.4 µM)
- LC50 [4]: 3 µg/mL (≈ 17 µM)

SMILES: CNC(=O)ON=C(C)SC(C)C [Compound 2]
- LC50 [1]: 450 µg/mL (≈ 2370 µM)
- LC50 [2]: 53 µg/mL (≈ 279 µM)
- contact vs stomach poison, army worm (in words) [2]: significantly more toxic as stomach poisons than as contact poisons
- (Imm/Bait), Armyworm [2]: 3.1
- LC50 [3]: 17 µg/mL (≈ 89.3 µM)
- LC50 [4]: 11 µg/mL (≈ 57.8 µM)

SMILES: CSC(C)=NOC(=O)N(C)Sc1ccc(C)cc1 [Compound 6]
- LC50 [1]: 95 µg/mL (≈ 334 µM)
- LC50 [2]: 10 µg/mL (≈ 35.2 µM)
- (Imm/Bait), Armyworm [2]: 1.7
- LC50 [3]: 6 µg/mL (≈ 21.1 µM)
- (b) relative efficacy of derivative vs parent compound, Armyworm [3]: 3.2
- LC50 [4]: 2 µg/mL (≈ 7.03 µM)

SMILES: CNC(=O)ON=C(C)SC [Compound 1, O-(methylcarbamoyl) S-methyl acetothiolhydroximate]
- LC50 [1]: 500 µg/mL (≈ 3080 µM)
- LC50 [2]: 8 µg/mL (≈ 49.3 µM)
- contact vs stomach poison, army worm (in words) [2]: significantly more toxic as stomach poisons than as contact poisons
- (Imm/Bait), Armyworm [2]: 2
- LC50 [3]: 11 µg/mL (≈ 67.8 µM)
- LC50 [4]: 4 µg/mL (≈ 24.7 µM)
